{"source": "patent US7160867B2", "about": "(Isotechnika, Inc., priority 2003, dated 2007)", "key": {"Beagle dogs": {"system": "Beagle dogs", "experiment": "Gastrointestinal tolerability in beagle dogs"}, "[1]": {"experiment": "Hydrolysis of rapamycin carbohydrate derivatives in human whole blood", "format": "in vitro ADME", "conditions": "spiked in human whole blood; free rapamycin by HPLC at 1 hour"}, "[2]": {"system": "primary blood lymphocyte cultures (PBMC)", "experiment": "In vitro immunosuppressive activity, PBMC proliferation (alamar blue)", "format": "cell-based", "conditions": "3-day culturing, FIG. 5"}, "[3]": {"experiment": "Pharmacokinetic profiles in rats after oral dosing (rapamycin in whole blood by LC/MS)", "format": "in vivo, Sprague Dawley rats", "conditions": "2.5 or 10 mg/kg", "method": "The pharmacokinetic profiles in rats of selected rapamycin carbohydrate derivatives were determined to investigate the ability of the derivatives to deliver free rapamycin into the bloodstream in vivo. […] Whole blood was extracted via jugular bleed over 24 hours and frozen at −20° C. until analysis. Whole blood was analyzed by Liquid Chromatography Mass Spectrometry for the presence of rapamycin."}, "[4]": {"system": "heterotopic heart allografts", "experiment": "Graft survival of heterotopic heart allografts in rats", "format": "in vivo, Wistar Furth rats to Lewis rats", "excerpt": "If graft dysfunction was noted during the 30-day post-transplantation period, the animal was sacrificed. If the animal survived longer than 30 days post-transplantation, the test and control articles were discontinued and the animal was allowed to continue until graft dysfunction or up to 100 days post-transplantation."}, "[5]": {"experiment": "Stability toward hydrolysis in acidic media", "format": "physicochemical", "conditions": "70/30 methanol/0.1N HCl (pH 1.5); free rapamycin by HPLC at 1 hour"}, "washed human platelets": {"system": "washed human platelets", "experiment": "Washed human platelet aggregation assay", "conditions": "25 μg/ml, 2 μM ADP, after 8 minutes, FIG. 11"}, "Sprague-Dawley rats": {"system": "Sprague-Dawley rats", "experiment": "Serum cholesterol levels in rats", "format": "in vivo", "conditions": "2.5 mg/kg/day for 12 days", "method": "Cholesterol levels were measured at the 24-hour trough level on day 11."}, "[6]": {"conditions": "[14C]-rapamycin, healthy male volunteers; cited from earlier work"}, "[7]": {"conditions": "in plasma and in low and neutral pH buffers at 37° C.; cited from earlier work"}, "[8]": {"conditions": "2.5 mg/kg/day oral gavage, day -3 to day 30, N = 6 (derivative n = 5)"}}, "note": "“Also recorded” adds a separate entry of the source."}
{"smiles": "CO[C@H]1C[C@@H]2CC[C@@H](C)[C@@](O)(O2)C(=O)C(=O)N2CCCC[C@H]2C(=O)O[C@H]([C@H](C)C[C@@H]2CC[C@@H](OC(=O)OCC3(O)OC[C@@H](O)[C@@H](O)[C@@H]3O)[C@H](OC)C2)CC(=O)[C@H](C)/C=C(\\C)[C@@H](O)[C@@H](OC)C(=O)[C@H](C)C[C@H](C)/C=C/C=C/C=C/1C", "note": "(stereo partly drawn) [42-O-(D-Fructosylcarbonyl)rapamycin]", "values": [{"measurement": "Observations", "setting": "Beagle dogs; beagle dog 4, oral dose 1 mg/kg, rapamycin given one week after the derivative, 1 mg/kg", "value": "Lethargic; also recorded: Recovered"}, {"measurement": "Observations", "setting": "Beagle dogs; beagle dog 4, oral dose 1 mg/kg, rapamycin given one week after the derivative, listed as 42-O-(D-fructosylcarbonyl)rapamycin, 1 mg/kg", "value": "slight lethargy"}, {"measurement": "Observations", "setting": "Beagle dogs; beagle dogs, single oral dose 10 mg/kg, 10 mg/kg", "value": "Normal"}, {"measurement": "Observations", "setting": "Beagle dogs; beagle dogs, single oral dose 10 mg/kg, listed as 42-O-(D-fructosylcarbonyl)rapamycin, 10 mg/kg", "value": "no overt physical changes"}, {"measurement": "Extent of Hydrolysis (%)", "setting": "[1]", "value": "28 ± 2", "unit": "%"}, {"measurement": "cell proliferation inhibition / immunosuppressive activity", "setting": "[2]", "value": "equivalent to rapamycin"}, {"measurement": "time to maximum concentration of rapamycin in blood", "setting": "[3]; FIG. 6", "value": "approximately 3 hours"}, {"measurement": "prolonged survival of the graft over the vehicle control", "setting": "[4]; 2.5 mg/kg/day", "value": 214, "unit": "%"}, {"measurement": "Average Survival Time (days post-transplant) Mean ± SEM", "setting": "[4]; [8]", "value": "41 ± 4", "unit": "days post-transplant"}, {"measurement": "prolonged survival of the graft over the vehicle control", "setting": "[4]; 10 mg/kg/day", "value": 341, "unit": "%"}, {"measurement": "Average Survival Time (days post-transplant) Mean ± SEM", "setting": "[4]; 10 mg/kg/day oral gavage, day -3 to day 30, N = 6", "value": "57 ± 4", "unit": "days post-transplant"}, {"measurement": "Extent of Hydrolysis (%)", "setting": "[5]", "value": "<1", "unit": "%"}, {"measurement": "platelet aggregation", "setting": "washed human platelets", "value": "does not exhibit a measurable effect"}, {"measurement": "serum cholesterol level relative to vehicle control group", "setting": "Sprague-Dawley rats; 24-hour trough on day 11, FIG. 9", "value": "not significantly different"}, {"measurement": "serum cholesterol level relative to rapamycin group", "setting": "Sprague-Dawley rats; 24-hour trough on day 11, p<0.01, FIG. 9", "value": "significantly lower"}]}
{"smiles": "CO[C@H]1C[C@@H]2CC[C@@H](C)[C@@](O)(O2)C(=O)C(=O)N2CCCC[C@H]2C(=O)O[C@H]([C@H](C)C[C@@H]2CC[C@@H](O)[C@H](OC)C2)CC(=O)[C@H](C)/C=C(\\C)[C@@H](O)[C@@H](OC)C(=O)[C@H](C)C[C@H](C)/C=C/C=C/C=C/1C", "note": "[Rapamycin]", "values": [{"measurement": "share of the total radioactivity in blood", "setting": "[6]", "value": "approximately 35%"}, {"measurement": "time to maximum concentration of rapamycin in blood", "setting": "[3]; FIGS. 6 and 7", "value": "approximately 30 minutes"}, {"measurement": "Average Survival Time (days post-transplant) Mean ± SEM", "setting": "[4]; [8]", "value": "39 ± 4", "unit": "days post-transplant"}, {"measurement": "half-life of degradation", "setting": "[7]", "value": "less than 10 hours"}]}
{"smiles": "CO[C@H]1C[C@@H]2CC[C@@H](C)[C@@](O)(O2)C(=O)C(=O)N2CCCC[C@H]2C(=O)O[C@H]([C@H](C)C[C@@H]2CC[C@@H](O)[C@H](OC)C2)CC(=O)[C@H](C)/C=C(\\C)[C@@H](OC(=O)OCC2(O)OC[C@@H](O)[C@@H](O)[C@@H]2O)[C@@H](OC)C(=O)[C@H](C)C[C@H](C)/C=C/C=C/C=C/1C", "note": "(stereo partly drawn) [31-O-(D-Fructosylcarbonyl)rapamycin]", "values": [{"measurement": "Extent of Hydrolysis (%)", "setting": "[1]", "value": "23 ± 0.5", "unit": "%"}, {"measurement": "Extent of Hydrolysis (%)", "setting": "[5]", "value": "<1", "unit": "%"}]}
